Measurements from patent publication US11634417B2 (Array BioPharma Inc., priority 2019, dated 2023).

How the values were obtained:
[1] = tested on: ERK1/2 (Thr202/Tyr204) phosphorylation in KYSE520 cells; assay: Cellular Phospho-p44/42 MAPK (Erk1/2) (Thr202/Tyr204) assay, In-Cell Western; assay type: cell-based; conditions: Homo sapiens, KYSE-520; KYSE520 cells, 1 hour incubation, pERK signal normalized to GAPDH; single assay or mean of multiple assays; read-out: Biological Example 2 IC50
Procedure: Inhibition of ERK1/2 (Thr202/Tyr204) phosphorylation was determined by the following cellular assay, which comprises incubating cells with a compound for 1 hour and quantifying pERK signal by In-Cell Western on fixed cells and normalizing to GAPDH signal. KYSE520 cells were obtained from DSMZ and grown in RPMI supplemented with 10% fetal bovine serum, penicillin/streptomycin, 2 mM L-alanyl-L-glutamine dipeptide in 0.85% NaCl (Glutamax™), non-essential amino acids, and sodium pyruvate. Cells were plated in 96-well plates at 30,000 cells/well and allowed to attach overnight at 37° C./5% CO2. Cells were treated with compounds prepared as a 10-point, 1:3 dilution series (range: 20 μM-1 nM), with a final DMSO concentration of 0.5%. After 1 hour incubation, cells were fixed in 3.7% formaldehyde in Dulbecco's phosphate-buffered saline (“dPBS”) at room temperature for 20 minutes. Cells were then washed with dPBS and permeabilized in 100% MeOH at room temperature for 10 minutes. Following permeabilization, cells were washed in dPBS and incubated in LI-COR Blocking Buffer (LI-COR Biosciences, Cat #927-40000) for 1 hour or longer. Plates were then incubated with an antibody specific for the MEK-dependent ERK1/2 phosphorylation sites, threonine 202 and tyrosine 204 (Cell Signaling Technologies; Cat #9101), downstream of SHP2 in the MAP kinase signal transduction pathway, as well as GAPDH (Millipore; Cat #MAB374). pErk1/2 (Thr202/Tyr204) antibody was diluted in LI-COR blocking buffer containing 0.05% polysorbate-20 (Tween-20) at 1:250; GAPDH was diluted at 1:2,500. The plates were incubated overnight at 4° C. After washing with PBS/0.05% Tween-20, the cells were incubated with fluorescently-labeled secondary antibodies (Anti-rabbit-Alexa Flour680, Invitrogen Cat #A21109; Anti-mouse-IRDye800CW, Li-cor Bioscieces Cat #926-32210, both at 1:1000 dilution) for 1 hour. Cells were then washed, as above, and analyzed for fluorescence at both 680 nm and 800 nm wavelengths using the Aerius Infrared Imaging System (LI-COR Biosciences, Model 9250). Phosphorylated Erk1/2 ([…]) signal was normalized to GAPDH signal for each well. IC50 values were calculated from the normalized values using a 4-parameter fit in BioAssay software. The reported IC50 in Table 2 may be from a single assay or the mean of multiple assays.

full-length SHP2 = biological target: T1, full-length SHP2 (Homo sapiens, UniProt Q06124); assay: SHP2 enzymatic assay (fluorescence intensity kinetic assay, DiFMUP hydrolysis); assay type: biochemical; conditions: 1 nM His6-tagged SHP2(2-527), 1 μM activating peptide, 50 μM DiFMUP; single assay or mean of multiple assays; read-out: Biological Example 1 IC50
T1 construct: 1 nM full-length SHP2 (His6-tagged SHP2(2-527), recombinantly expressed in E. coli and purified in-house); His6; made in house; host or cells: E. coli
T1 sequence (Q06124 2-527): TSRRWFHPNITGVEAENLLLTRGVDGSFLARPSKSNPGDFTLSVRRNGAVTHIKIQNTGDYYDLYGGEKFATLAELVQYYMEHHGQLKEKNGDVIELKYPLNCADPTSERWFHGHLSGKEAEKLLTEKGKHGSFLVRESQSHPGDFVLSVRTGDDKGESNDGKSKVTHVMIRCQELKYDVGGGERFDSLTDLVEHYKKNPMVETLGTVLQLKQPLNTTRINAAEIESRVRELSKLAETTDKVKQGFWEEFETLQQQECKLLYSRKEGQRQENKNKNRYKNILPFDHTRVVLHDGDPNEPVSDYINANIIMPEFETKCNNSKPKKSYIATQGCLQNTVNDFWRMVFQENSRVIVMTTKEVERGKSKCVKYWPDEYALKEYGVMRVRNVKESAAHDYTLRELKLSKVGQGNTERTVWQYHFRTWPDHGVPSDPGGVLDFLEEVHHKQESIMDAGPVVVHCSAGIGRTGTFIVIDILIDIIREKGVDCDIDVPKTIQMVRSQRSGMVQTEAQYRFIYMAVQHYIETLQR
Procedure: A fluorescence intensity kinetic assay was configured for full-length SHP2 that monitors the amount of 6,8-difluoro-7-hydroxy-4-methylcoumarin (“DiFMU”) formed upon hydrolysis of 6,8-difluoro-4-methylumbelliferyl phosphate (“DiFMUP”) by SHP2. […] Low control wells lacked enzyme. The assays were initiated by the addition of a mixture of SHP2 and the activating peptide, and following a 15 second mix on an orbital shaker, were read in kinetic mode for 15 minutes (30 seconds/cycle) at ambient temperature on a PerkinElmer EnVision microplate reader (kEx=355 nm, kEm=460 nm). Initial velocities (slopes of the tangents at t=0) were estimated from exponential fits to the slightly nonlinear progress curves and then were converted to percent of control (“POC”) using the following equation:
[formula] • Where: xmax Average Uninhibited Controls • Xmin Average Background A 4-parameter logistic model was the fit to the POC data for each compound. From that fit, the IC50 was estimated and is defined as the concentration of compound at which the curve crosses 50 POC.

C[C@@H]1OCC2(CCN(c3ncc(Sc4c(Cl)cnc5[nH]ccc45)nn3)CC2)[C@@H]1N [Example 9, (3S,4S)-8-(6-((5-chloro-1H-pyrrolo[2,3-b]pyridin-4-yl)thio)-1,2,4-triazin-3-yl)-3-methyl-2-oxa-8-azaspiro[4.5]decan-4-amine]
IC50 [1]: 699 nM | IC50 (full-length SHP2): 358 nM

Cc1ccc2c(c1)CC1(CCN(c3ncc(Sc4ccnc(N)c4Cl)nn3)CC1)[C@H]2N [Example 59, (R)-1′-(6-((2-amino-3-chloropyridin-4-yl)thio)-1,2,4-triazin-3-yl)-5-methyl-1,3-dihydrospiro[indene-2,4′-piperidin]-1-amine]
IC50 [1]: 170 nM | IC50 (full-length SHP2): 118 nM

Nc1c(Cl)c(Sc2cnc(N3CCC4(CC3)Cc3ccccc3[C@H]4N)nn2)cc[n+]1[O-] [Example 34, (S)-2-amino-4-((3-(1-amino-1,3-dihydrospiro[indene-2,4′-piperidin]-1′-yl)-1,2,4-triazin-6-yl)thio)-3-chloropyridine 1-oxide]
IC50 [1]: 9 nM | IC50 (full-length SHP2): 79 nM

N[C@@H]1c2ccccc2CC12CCN(c1ncc(Sc3c[nH]c4ccccc34)nn1)CC2 [Example 69, (S)-1′-(6-((1H-indol-3-yl)thio)-1,2,4-triazin-3-yl)-1,3-dihydrospiro[indene-2,4′-piperidin]-1-amine]
IC50 [1]: 170 nM | IC50 (full-length SHP2): 19 nM

Cc1ccc2c(c1)[C@H](N)C1(CCN(c3ncc(Sc4ccnc(N)c4Cl)nn3)CC1)C2 [Example 47, (R)-1′-(6-((2-amino-3-chloropyridin-4-yl)thio)-1,2,4-triazin-3-yl)-6-methyl-1,3-dihydrospiro[indene-2,4′-piperidin]-1-amine]
IC50 [1]: 56 nM | IC50 (full-length SHP2): 38 nM

Nc1nccc(Sc2cnc(N3CCC4(CC3)Cc3c(Cl)cccc3[C@@H]4N)nn2)c1Cl [Example 82, (R)-1′-(6-((2-amino-3-chloropyridin-4-yl)thio)-1,2,4-triazin-3-yl)-4-chloro-1,3-dihydrospiro[indene-2,4′-piperidin]-1-amine]
IC50 [1]: 541 nM | IC50 (full-length SHP2): 205 nM

N[C@@H]1c2ccccc2CC12CCN(c1ncc(Sc3n[nH]c4ncccc34)nn1)CC2 [Example 27, (S)-1′-(6-((1H-pyrazolo[3,4-b]pyridin-3-yl)thio)-1,2,4-triazin-3-yl)-1,3-dihydrospiro[indene-2,4′-piperidin]-1-amine]
IC50 [1]: 11 nM | IC50 (full-length SHP2): 17 nM

N[C@@H]1c2ccccc2CC12CCN(c1ncc(Sc3ccnc(NCCO)c3Cl)nn1)CC2 [Example 83, (S)-2-((4-((3-(1-amino-1,3-dihydrospiro[indene-2,4′-piperidin]-1′-yl)-1,2,4-triazin-6-yl)thio)-3-chloropyridin-2-yl)amino)ethan-1-ol]
IC50 [1]: 3 nM | IC50 (full-length SHP2): 46 nM

Nc1nccc(Sc2cnc(N3CCC4(CC3)Cc3c(Cl)cccc3[C@H]4N)nn2)c1Cl [Example 35, (S)-1′-(6-((2-amino-3-chloropyridin-4-yl)thio)-1,2,4-triazin-3-yl)-4-chloro-1,3-dihydrospiro[indene-2,4′-piperidin]-1-amine]
IC50 [1]: 9 nM | IC50 (full-length SHP2): 26 nM

Cc1cccc2c1CC1(CCN(c3ncc(Sc4ccnc(N)c4Cl)nn3)CC1)[C@H]2N [Example 49, (R)-1′-(6-((2-amino-3-chloropyridin-4-yl)thio)-1,2,4-triazin-3-yl)-4-methyl-1,3-dihydrospiro[indene-2,4′-piperidin]-1-amine]
IC50 [1]: 126 nM | IC50 (full-length SHP2): 157 nM

N[C@@H]1c2ccccc2CC12CCN(c1ncc(-c3ccccc3Cl)nn1)CC2 [Example 31, (S)-1′-(6-(2-chlorophenyl)-1,2,4-triazin-3-yl)-1,3-dihydrospiro[indene-2,4′-piperidin]-1-amine]
IC50 [1]: 424 nM | IC50 (full-length SHP2): 23 nM

C[C@@H]1OCC2(CCN(c3ncc(Sc4ccnc5c4ccn5C)nn3)CC2)[C@@H]1N [Example 29, (3S,4S)-3-methyl-8-(6-((1-methyl-1H-pyrrolo[2,3-b]pyridin-4-yl)thio)-1,2,4-triazin-3-yl)-2-oxa-8-azaspiro[4.5]decan-4-amine]
IC50 [1]: 206 nM | IC50 (full-length SHP2): 96 nM

COc1cnc2c(c1)[C@H](N)C1(CCN(c3ncc(Sc4ccnc(N)c4Cl)nn3)CC1)C2 (single isomer, unassigned) [Example 43]
IC50 [1]: 509 nM | IC50 (full-length SHP2): 142 nM

CNc1nccc(Sc2cnc(N3CCC4(CC3)Cc3cc(C#N)ccc3[C@H]4N)nn2)c1Cl (single isomer, unassigned) [Example 41]
IC50 [1]: 19 nM | IC50 (full-length SHP2): 79 nM

Cc1nc(N2CCC3(CC2)CO[C@@H](C)[C@H]3N)nnc1Sc1cccc(Cl)c1Cl [Example 13, (3S,4S)-8-(6-((2,3-dichlorophenyl)thio)-5-methyl-1,2,4-triazin-3-yl)-3-methyl-2-oxa-8-azaspiro[4.5]decan-4-amine]
IC50 [1]: 1030 nM | IC50 (full-length SHP2): 141 nM

C[C@@H]1OCC2(CCN(c3ncc(Sc4ccnc(N)c4Cl)nn3)CC2)[C@@H]1N [Example 1, (3S,4S)-8-(6-((2-amino-3-chloropyridin-4-yl)thio)-1,2,4-triazin-3-yl)-3-methyl-2-oxa-8-azaspiro[4.5]decan-4-amine]
IC50 [1]: 55 nM | IC50 (full-length SHP2): 59 nM

Nc1nccc(Sc2cnc(N3CCC4(CC3)Cc3cc(Cl)ccc3[C@@H]4N)nn2)c1Cl [Example 46, (R)-1′-(6-((2-amino-3-chloropyridin-4-yl)thio)-1,2,4-triazin-3-yl)-5-chloro-1,3-dihydrospiro[indene-2,4′-piperidin]-1-amine]
IC50 [1]: 430 nM | IC50 (full-length SHP2): 91 nM

C[C@@H]1OCC2(CCN(c3ncc(Sc4cccc(Cl)c4Cl)nn3)CC2)[C@@H]1N [Example 7, (3S,4S)-8-(6-((2,3-dichlorophenyl)thio)-1,2,4-triazin-3-yl)-3-methyl-2-oxa-8-azaspiro[4.5]decan-4-amine]
IC50 [1]: 89 nM | IC50 (full-length SHP2): 17 nM

N[C@@H]1c2ccccc2CC12CCN(c1ncc(Oc3cccc4cnccc34)nn1)CC2 [Example 28, (S)-1′-(6-(isoquinolin-5-yloxy)-1,2,4-triazin-3-yl)-1,3-dihydrospiro[indene-2,4′-piperidin]-1-amine]
IC50 [1]: 1140 nM | IC50 (full-length SHP2): 879 nM

CNc1nccc(Sc2cnc(N3CCC4(CC3)Cc3ccccc3[C@H]4N)nn2)c1Cl [Example 53, (S)-1′-(6-((3-chloro-2-(methylamino)pyridin-4-yl)thio)-1,2,4-triazin-3-yl)-1,3-dihydrospiro[indene-2,4′-piperidin]-1-amine]
IC50 [1]: 4 nM | IC50 (full-length SHP2): 46 nM

Nc1cc(Sc2cnc(N3CCC4(CC3)Cc3ccccc3[C@H]4N)nn2)c(Cl)cn1 [Example 18, (S)-1′-(6-((2-amino-5-chloropyridin-4-yl)thio)-1,2,4-triazin-3-yl)-1,3-dihydrospiro[indene-2,4′-piperidin]-1-amine]
IC50 [1]: 8 nM | IC50 (full-length SHP2): 15 nM
